# Measured values taken from patent US8173428B2, “LNA oligonucleotides and the treatment of cancer” (Santaris Pharma A/S, priority 2004, dated 2012).
# Oligonucleotides are written 5' to 3', each unit as a sugar letter and its base; * is a phosphorothioate linkage, no mark a phosphodiester; rarer units and linkages stand in square brackets, end groups in braces. Plain capitals give the bases only. l = locked nucleic acid (LNA); [5mC] = 5-methylcytosine; d = 2'-deoxy (DNA)
# Key:
# cynomolgus monkeys = assay: i.v. MTD study in cynomolgus monkeys; format: in vivo; conditions: dose escalation up to 160 mg/kg×3 (total 930 mg/kg) or 120 mg/kg×5 over 2 weeks
# Description: The animals were treated with either a dose escalating design with a maximum dose of 160 mg/kg×3 (total dose of 930 mg/kg) or a 120 mg/kg×5 over 2 weeks.
# 15PC3 cells = assay: Caspase 3/7 assay, oligonucleotide in combination with Taxol; format: cell-based, human; conditions: 10 nM oligonucleotide with Taxol (10 nM or 100 nM), 48 hours and 72 hours
# Description: Cell culturing: Human prostate cancer 15PC3 cells (kindly provided by Dr. F Baas, Neurozintuigen Laboratory, AMC, The Netherlands) were seeded to a density of 8×10E5 cells in T75-flasks and grown for two days at 37° C. and 5% CO2 in DMEM supplemented with 10% FBS, Glutamax and Gentamicin. Two days following seeding cells were transfected with 2-10 nM SEQ ID NO. 2 using Lipofectamine at a final conc. of 7.5 μg/ml. Transfections were carried out as described by Dean et al. (1994, JBC 269 p. 16416 16424). In short cells were incubated with Lipofectamine diluted in OptiMEM for 7-10 min followed by the addition of the oligonucleotide to total volume of 8.7 ml per T75 flask. […] Cells were harvested for either mRNA extraction, Caspase 3/7 assay or fixed, stained with PI and analysed by FACS analysis.
# Caspase 3/7 assay: An equal amount of 15PC3 cells ranging from 2500-10000 cells were harvested by centrifugation at the indicated periods and plated in white 96 well plates (Nunc 136101) in DMEM. 100 μl of the highly sensitive Caspase 3/7-Glo™ Reagent (Promega) was added directly to the cells in 96 well and plates were incubated for 1 hour before recording luminescence (luciferase activity) in Luminoskan Ascent instrument from Thermo Labsystems after further 1 min lag period. The luciferase activity is measured as Relative Light Units per seconds (RLU/s). […]
# Survivin protein = assay: Tumour analysis: Survivin protein by Western blotting after intratumoural injection; format: in vivo, Balb/cA-nu mice; conditions: 25 mg/kg intratumoral, 6 times over 2 weeks, sampling 24 hours after last dose, versus saline
# Description: Model: PC-3 human prostate cancer cells (ECACC) are mixed with Matrigel and injected s.c. into both flanks of female Balb/cA-nu mice on Day 0.
# Administration: Oligonucleotides i.p. (see FIG. 8) or intratumoural (see FIG. 9), Taxol i.v., all according to schedule
# cDNA synthesis: First strand synthesis was performed using OmniScript Reverse Transcriptase kit according to the manufacturer's instructions (Qiagen). […] Protein levels were analysed on individual tumours by western blotting (see FIG. 9). Real time PCR analysis: To determine the relative Survivin mRNA level treated and untreated tumours, the generated cDNA was used in quantitative PCR analysis using an iCycler from BioRad. The cDNA was diluted 5-fold and 8 μl was mixed with 52 μl Taqman probe master mix containing 30 μl Platinum Quantitative PCR SuperMix UDG 2×PCR master mix (Invitrogen), 3 μl 20× Taqman probe and primer mix (forward primer: 5′-[…]-3′ (SEQ ID NO. 29), final 0.9 μM. Reverse primer: 5′-[…]-3′ (SEQ ID NO. 30), final 0.6 μM and taqman probe: FAM-5′-[…]-TAMRA-3′ (SEQ ID NO. 31), final 0.1 μM) and 19 μl H2O. […] To normalize any variance in sample preparation, the endogenous GAPDH mRNA was quantified using a pre-developed Taqman assay reagent from Applied Biosystems (4310884E) according to manufacture's instructions. […] Total protein concentrations were measured using a BCA protein assay kit (Pierce). […]
substance,measurement,setting,value
5′-^MeCsTs^MeCsAsastscscsastsgsgs^MeCsAsGsc-3′ (l[5mC]*lT*l[5mC]*lA*dA*dT*dC*dC*dA*dT*dG*dG*l[5mC]*lA*lG*dC) [SEQ ID NO. 2],clinical signs,cynomolgus monkeys,no notable clinical signs
same,liver and kidney toxicity,cynomolgus monkeys,evidence of liver and kidney toxicity was apparent in all animals
same,Induction of apoptosis (Caspase 3/7 activity) in combination with Taxol,15PC3 cells,clear additive effect on the induction of apoptosis
same,Survivin protein level in tumours,Survivin protein,reduced levels of both mRNA and Survivin protein
